Measured values from US20220395500A1, “SMALL MOLECULE ACTIVATORS OF INTERFERON REGULATORY FACTOR 3 AND METHODS OF USE THEREOF” (Neuralexo, Inc., priority 2020, published 2022).
pEC50: −log10 of the molar value. Where two headings read alike, the source gives them in different places.

What was measured:
[1] = test system: IRF-Lucia luciferase reporter (ISRE) in J774-Dual cells; assay: J774-Dual IRF-Lucia luciferase reporter assay (ISRE activation); type: cell-based, mouse; settings: for pEC50: Mus musculus; for J774 IRF % activation at peak: Mouse Reporter Cell Line
Method in brief: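 Eight-point dose-response in J774-Dual mouse macrophage-like cells gave EC50, plus CC50 by in-plate CellTiter-Glo, and ISRE:NF-κB ratios. Cells plated 24 h at 37 °C, 5% CO2 without differentiation; supernatant Lucia luciferase and SEAP measured with QUANTI-Luc and QUANTI-Blue.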

[2] = test system: NF-κB-SEAP reporter in THP1-Dual cells; assay: THP1-Dual NF-κB-SEAP reporter counterscreen; type: cell-based, human; settings: Homo sapiens, THP1-Dual, read-out: THP1 NFkB EC50
Procedure: THP1 Dual (InvivoGen) cell suspensions were cultured in RPMI 1640 (Hyclone, Logan, Utah) supplemented with 10% fetal bovine serum (Hyclone), 100 U/mL Normocin (Invivogen), and 50 U/mL PenStrep (Gibco, Dublin, Ireland) between a density of 7·10^5-2·10^6 cells/mL. Every other passage, media was supplemented with 5 U/mL Blasticidin and 100 U/mL Zeocin to maintain the expression constructs. White, flat-bottom 384-well plates (Greiner, Kremsmunster, Austria, 781080) were seeded with 2.5·10^4 cells/well in a total of 50 μL media containing 5 ng/mL phorbolmyristic acid (PMA) using a Matrix WellMate (Thermo Scientific) dispenser. After 48 hours of incubation at 37° C., media was removed using a BioTek ELx405 CW plate washer set to aspirate and wash each well three times with 65 μL 1×PBS. Plates were reloaded with 50 μL media without PMA and treatments added. Lipopolysaccharide in dimethylsulfoxide (DMSO) was transferred to control wells using a HP D300 microdispenser to a final concentration of 313 ng/mL. Compounds from chemical library plates were copied using a Sciclone (Caliper LifeSciences) mounted with a 384-pin transfer tool to obtain a final concentration of 10 μM. After incubation with treatments for 24 hours, 10 μL of supernatant media from each well was transferred into a white, flat-bottom 384-well plate for luminescence readout and a black-walled, clear flat-bottom 384-well plate for absorbance readout.
Specifically, to enable screening of novel chemical entities (NCEs) in a larger screening effort, a robust high-throughput cell-based assay system for primary hit identification of ISRE activators based on the above-mentioned target validation was desired. Human ISRE activity was verified using a THP-1 monocyte line containing the NF-κB-SEAP and IRF-Lucia luciferase dual reporter (THP1-Dual; Invivogen) that features two reporter genes, SEAP (secreted embryonic alkaline phosphatase) and Lucia luciferase, thereby enabling the simultaneous study of the NF-κB and IRF signalling pathways. The Lucia luciferase reporter is under the control of an ISG54 (interferon-stimulated gene) minimal promoter in conjunction with five IFN-stimulated response elements. The SEAP gene is driven by an IFN-β minimal promoter fused to five copies of the NF-κB consensus transcriptional response element and three copies of the c-Rel binding site. Both reporter proteins are readily measurable in the cell culture supernatant when using QUANTI-LUC™ and QUANTI-Blue SEAP detection reagents.
Using the experimental design and data analysis outlined above, optimized assay conditions were obtained. The responsiveness of the human THP-1 Dual cell line was evaluated in an array of assay conditions to obtain sensitive and reproducible results for the activation of IRF and NF-κB reporters. An optimal plating density and differentiation protocol for these cells was established in a 384-well format. All transfer steps are fully automated using high throughput robotic equipment. Briefly, cells are seeded in differentiation medium using a Matrix WellMate fitted with the WellMate Stacker (Thermo Scientific) and incubated at 37° C. with 5% CO2 for 48 h. Following differentiation, cells are washed using a BioTek ELx405 Select CW plate washer and growth medium added with the Matrix WellMate. Programmed control treatments are added to wells using a D300 digital dispenser fitted with T8+ dispense heads (Hewlett Packard) designed to dispense nanoliter quantities of material. Compounds from library plates are added using a pin tool fitted to a Sciclone ALH 3000 Workstation (Caliper Life Sciences) programmed with Maestro v4.4. After treatment, plates are returned to incubators for 24 hours. To measure reporter expression, supernatant is collected using the Sciclone and dispensed into 2 plates: 1) a white 384-well assay plate for Lucia luminescence measurements and 2) a clear-bottom black 384-well assay plate for SEAP absorbance measurements. […]

[3] = J774, Mouse Reporter Cell Line, 8-point dose response, read-out: J774 IRF EC50
[4] = Human Reporter Cell Line, 8-point dose response

Cc1ccc2c(=O)c3cccc(CC(=O)O)c3oc2c1C [DMXAA, 5,6-dimethylxanthenone-4-acetic acid] showed a pEC50 ([1]; J774-Dual control compound, read-out: EC50 ISRE activation) of 4.62.
With O=C(Nc1ccc(N2CCN(C(=O)c3cccs3)CC2)cc1)c1ccc(Cl)c2ccccc12 [NA13] the “J774 IRF % activation at peak” value [1] was 3.434%, the pEC50 [1, 3] was 6.09 and the pEC50 [2, 4] was 5.91.
CCOc1cccc(COc2ccc(C(=O)Nc3ccc(N4CCN(C(=O)c5cccs5)CC4)cc3)cc2)c1 [NA42, 4-((3-ethoxybenzyl)oxy)-N-(4-(4-(thiophene-2-carbonyl)piperazin-1-yl)phenyl)benzamide] was tested, and the “J774 IRF % activation at peak” value [1] was 191.2%, the pEC50 [1, 3] was 5.41 and the pEC50 [2, 4] was 5.52.
In the case of O=C(Nc1ccc(N2CCN(C(=O)c3ccsc3)CC2)cc1)c1ccc(OCc2ccccc2)nc1 [NA-1], the “J774 IRF % activation at peak” value [1] was 67.54%, the pEC50 [1, 3] was roughly 5.51 and the pEC50 [2, 4] was 5.68.
For O=C(Nc1ccc(N2CCN(C(=O)c3cccs3)CC2)cc1)c1ccc(Br)cc1 [NA-14], the “J774 IRF % activation at peak” value [1] was 4.471%, the pEC50 [1, 3] was 5.28 and the pEC50 [2, 4] was roughly 5.62.
Cc1c(Br)ccc(C(=O)Nc2ccc(N3CCN(C(=O)c4cccs4)CC3)cc2)c1C [NA-16] showed a pEC50 [2, 4] of roughly 5.28.
O=C(Nc1ccc(N2CCN(C(=O)c3cccs3)CC2)cc1)c1sc2cc(Cl)ccc2c1Cl [NA-20] was tested, and the “J774 IRF % activation at peak” value [1] was 29.98%, the pEC50 [1, 3] was 5.38 and the pEC50 [2, 4] was 5.56.
In the case of O=C(Nc1ccc(N2CCN(C(=O)c3cccs3)CC2)cc1)c1cccc2c(Br)cccc12 [NA-21, 5-bromo-N-{4-[4-(2-thienylcarbonyl)-1-piperazinyl]phenyl}-1-naphthamide], the “J774 IRF % activation at peak” value [1] was 38.86%, the pEC50 [1, 3] was 6.00 and the pEC50 [2, 4] was 5.97.
O=C(Nc1ccc(N2CCN(C(=O)c3cccs3)CC2)cc1)c1ccc(OCc2ccc(F)c(F)c2F)cc1 [NA-23] gave a pEC50 [2, 4] of roughly 5.64.
With COc1cccc(COc2ccc(C(=O)Nc3ccc(N4CCN(C(=O)c5cccs5)CC4)cc3)cc2)c1 [NA-24, 4-((3-methoxybenzyl)oxy)-N-(4-(4-(thiophene-2-carbonyl)piperazin-1-yl)phenyl)benzamide] the “J774 IRF % activation at peak” value [1] was 111.2%, the pEC50 [1, 3] was 5.33 and the pEC50 [2, 4] was 5.38.
With Cc1ccc(COc2ccc(C(=O)Nc3ccc(N4CCN(C(=O)c5cccs5)CC4)cc3)cc2)cc1 [NA-25] the “J774 IRF % activation at peak” value [1] was 18.01%, the pEC50 [1, 3] was 5.36 and the pEC50 [2, 4] was 5.30.
CCOc1ccc(C(=O)Nc2ccc(N3CCN(C(=O)c4cccs4)CC3)cc2)cc1Br [NA-30] was tested, and the “J774 IRF % activation at peak” value [1] was 2.95%, the pEC50 [1, 3] was roughly 5.48 and the pEC50 [2, 4] was 5.98.
For O=C(Nc1ccc(N2CCN(C(=O)c3cccs3)CC2)cc1)c1ccc(-c2cc3ccccc3oc2=O)cc1 [NA-32], the “J774 IRF % activation at peak” value [1] was 77.58%, the pEC50 [1, 3] was 4.93 and the pEC50 [2, 4] was 5.51.
For O=C(Nc1ccc(N2CCN(C(=O)c3cccs3)CC2)cc1)c1ccc(OCc2cccc(Cl)c2)cc1 [NA-33], the “J774 IRF % activation at peak” value [1] was 15.46%, the pEC50 [1, 3] was 5.58 and the pEC50 [2, 4] was 5.79.
For O=C(Nc1ccc(N2CCN(C(=O)c3cccs3)CC2)cc1)c1ccc(-c2ccncc2)cc1 [NA-38], the “J774 IRF % activation at peak” value [1] was 2.98%, the pEC50 [1, 3] was roughly 4.99 and the pEC50 [2, 4] was 5.46.
With O=C(Nc1ccc(N2CCN(C(=O)c3cccs3)CC2)cc1)c1ccc(-c2ccccc2)cn1 [NA-39] the “J774 IRF % activation at peak” value [1] was 77.89%, the pEC50 [1, 3] was 5.01 and the pEC50 [2, 4] was 5.10.
For O=C(Nc1ccc(N2CCN(C(=O)c3cccs3)CC2)cc1)c1ccc(-c2ccccc2)nc1 [NA-41], the “J774 IRF % activation at peak” value [1] was 37.71%, the pEC50 [1, 3] was 4.98 and the pEC50 [2, 4] was 4.90.
With COc1ccc(C(=O)Nc2ccc(OCc3ccccc3)cc2)cc1[N+](=O)[O-] [NA-44] the “J774 IRF % activation at peak” value [1] was 2.085%, the pEC50 [1, 3] was 5.13 and the pEC50 [2, 4] was 6.04.
For O=C(Nc1ccc(N2CCN(C(=O)c3cccs3)CC2)cc1)c1ccc(OCc2ccccc2)nc1 [NA-59], the “J774 IRF % activation at peak” value [1] was 150.5%, the pEC50 [1, 3] was 5.51 and the pEC50 [2, 4] was roughly 5.59.
In the case of O=C(Cc1ccc(Cl)cc1)Nc1cccc(-c2nnc(-c3ccco3)o2)c1 [ND-7], the pEC50 ([2]; Human Reporter Cell Line THP1) was 5.22.
For COc1ccc(C(=O)Nc2cccc(-c3nc4ncccc4o3)c2)cc1Br [ND-47], the pEC50 ([2]; Human Reporter Cell Line THP1) was 5.68.
